{"source": "patent US10415057B2", "about": "“Pseudotyping of retroviral vectors, methods for production and use thereof for targeted gene transfer and high throughput screening” (BUNDESREPUBLIK DEUTSCHLAND, LETZ[…], priority 2006, dated 2019)", "tested_on": "CD20 positive Raji cells", "test": "Selective transduction and Gancyclovir killing of CD20 positive Raji cells in a Raji/K-562 mixture", "details": "10 μM GCV; gfp transduced cells", "procedure": "The mutation of the MeV H protein comprises the four point mutations Y481A, R533A, S548L and F549S which ablates productive interactions with CD46 and SLAM, respectively. […] Furthermore, transduced cells can be detected by CD34 expression. In parallel, as a control, the same vector particles having packaged the go gene were applied.\nFor the generation of the vector particles calcium phosphate transfection was performed. 24 h before transfection, 6.5*10^6 HEK-293T cells were seeded into a T75 flask. 1 h before transfection the medium of the cells was exchanged against 7 ml fresh medium (DMEM with 4.5 g/l glucose, 3.7 g/l NaHCO3, 10% FCS, 1% glutamin). […]\nThe HmutscFvCD20Δ18/FcΔ30 pseudotyped HIV-1 vector particles either with packaged go gene or with packaged cd34tk39 gene were 1:5 diluted in 300 μl medium (RPMI 1640 with 2 g/l NaHCO3, 10% FCS, 1% glutamine) containing a mixture of 2*10^3 CD20+ Raji and 2*10^3 CD20− K-562 cells. […] Afterwards the percentages of CD20/GFP and CD20/CD34 double positive cells, respectively, were measured by FACS (time point 0 h in FIG. 18). […] At different time points the cells were stained with the respective antibodies and the double positive cells were measured by FACS (Dako Galaxy flow cytometry system; s. FIGS. 18A-18B)."}
{"compound": "Nc1nc(O)c2ncn(COC(CO)CO)c2n1", "note": "[GCV, Gancyclovir]", "values": [{"measurement": "Toxic effect of GCV by its own on the cells (CD20/GFP double positive fraction)", "result": "no toxic effect"}]}
